Read-outs that look alike come from different tables or passages of the source.
How the values were obtained:
[1] = 24 h, 0.25 mmol/L, pH 8
[2] = 24 h, 0.25 mmol/L, pH 10.2
[3] = reported in References 1 and 2; cited from earlier work
[4] = reported in References 1 to 3; cited from earlier work
[5] = NAC depletion under and without ultraviolet irradiation, HPLC with UV detection (281 nm); conditions: for NAC Depletion (%) without light irradiation: 25° C. 24 hours light-shielded; for NAC Depletion (%) without light irradiation / NAC Depletion (%) under light irradiation: test substance solution 1 mmol/L; for NAC Depletion (%) under light irradiation: 2,000 μW/cm^2 for 1 hour then 25° C. 23 hours
[6] = NAL depletion under and without ultraviolet irradiation, HPLC with UV detection (281 nm); conditions: for NAL Depletion (%) without light irradiation: 25° C. 24 hours light-shielded; for NAL Depletion (%) without light irradiation / NAL Depletion (%) under light irradiation: test substance solution 1 mmol/L; for NAL Depletion (%) under light irradiation: 2,000 μW/cm^2 for 1 hour then 25° C. 23 hours
[7] = Average score of NAC and NAL depletion and phototoxicity or photoallergy determination, UV detection
[8] = Average score of NAC and NAL depletion and phototoxicity or photoallergy determination, fluorescence detection; conditions: for Average score (%): without light irradiation
[9] = NAC depletion under and without ultraviolet irradiation, HPLC with fluorescence detection (284 nm excitation, 333 nm fluorescence); conditions: for NAC Depletion (%): without light irradiation
[10] = NAL depletion under and without ultraviolet irradiation, HPLC with fluorescence detection (284 nm excitation, 333 nm fluorescence); conditions: for NAL Depletion (%): without light irradiation
[11] = average of NAC and NAL depletion
[12] = without light irradiation, single compound
[13] = 25° C. 24 hours light-shielded, test substance solution 1 mmol/L
[14] = 2,000 μW/cm^2 for 1 hour then 25° C. 23 hours, test substance solution 1 mmol/L

Compound	Difference in depletion (under light irradiation - without light irradiation) NAC (%) [1] [%]	NAC Depletion (%) under light irradiation [1] [%]	NAC Depletion (%) without light irradiation [1] [%]	Difference in depletion (under light irradiation - without light irradiation) NAL (%) [2] [%]	NAL Depletion (%) under light irradiation [2] [%]	NAL Depletion (%) without light irradiation [2] [%]	In vivo photoallergy [3]	In vivo phototoxicity [4]	NAC Depletion (%) without light irradiation [5] [%]	NAC Depletion (%) under light irradiation [5] [%]	Difference in depletion (under light irradiation - without light irradiation) NAL (%) [6] [%]	NAL Depletion (%) without light irradiation [6] [%]	NAL Depletion (%) under light irradiation [6] [%]	Average score (%) without light irradiation [7, 11] [%]	Difference in depletion (under light irradiation - without light irradiation) Average score (%) ([8]; single compound)	Average score (%) ([8]; single compound)	Difference in depletion (under light irradiation - without light irradiation) NAC (%) ([9]; single compound)	NAC Depletion (%) ([9]; single compound)	Difference in depletion (under light irradiation - without light irradiation) NAL (%) ([10]; single compound)	NAL Depletion (%) ([10]; single compound)	other results
Nc1ccc(S(N)(=O)=O)cc1 [compound 27, Sulfanilamide]	25.5	26.1	0.6	−0.2	0.0	0.2	Positive	–	–	–	–	–	–	–	–	–	–	–	–	–	–
CC(=O)c1ccc2ccccc2c1 [compound 37, Methyl β-naphthyl ketone]	99.4	100.0	0.6	6.9	8.4	1.5	–	–	–	–	–	–	–	–	–	–	–	–	–	–	–
CCOc1ccc2c(C)cc(=O)oc2c1 [compound 29, 4-Methyl-7-ethoxycoumarin]	93.6	93.6	0.0	19.3	20.3	1.0	Positive	–	–	–	–	–	–	–	–	–	–	–	–	–	–
Cc1ccc(C=C2C(=O)C3(C)CCC2C3(C)C)cc1 (racemic) [compound 39]	–	–	–	–	–	–	Negative	Negative	0.7	4.3	0.0	0.0	0.0	0.3	2.0	0.1	3.9	0.2	0.0	0.0	Difference in depletion (under light irradiation - without light irradiation) NAC (%) [5]: 3.6%; Difference in depletion (under light irradiation - without light irradiation) Average score (%) [7]: 1.8%; Average score (%) under light irradiation [7, 11]: 2.1%
Tetrachlorosalicylanilide [compound 12]	–	–	–	–	–	–	Positive	Positive	66.8	−200.9	77.9	4.2	82.1	35.5	60.4	31.5	39.4	58.0	81.5	5.0	–
C[S+](C)[O-] [compound 58]	–	–	–	–	–	–	Negative	Negative	–	–	–	–	–	–	–	–	–	–	–	–	Difference in depletion (under light irradiation - without light irradiation) NAC (%) ([5]; single compound): 0.7%; NAC Depletion (%) [5, 12]: 0.0%; Difference in depletion (under light irradiation - without light irradiation) NAL (%) ([6]; single compound): −0.2%; NAL Depletion (%) [6, 12]: 0.2%; Difference in depletion (under light irradiation - without light irradiation) Average score (%) ([7]; single compound): 0.3%; Average score (%) [7, 12]: 0.1%; Difference in depletion (under light irradiation - without light irradiation) Average score (%) [8]: 0.1%; Average score (%) under light irradiation [8, 11]: 0.1%; Average score (%) without light irradiation [8, 11]: 0.0%; Difference in depletion (under light irradiation - without light irradiation) NAC (%) [9]: 0.1%; NAC Depletion (%) without light irradiation [9, 13]: 0.0%; NAC Depletion (%) under light irradiation [9, 14]: 0.2%; Difference in depletion (under light irradiation - without light irradiation) NAL (%) [10]: 0.0%; NAL Depletion (%) without light irradiation [10, 13]: 0.0%; NAL Depletion (%) under light irradiation [10, 14]: 0.0%
